The record followed here is a melting point compilation (Tetko et al.; mined from patent text by program, amines drawn as free bases though some values may be those of a salt).

SMILES strings stand for the structures.

With `CN1C(=O)C(NC(=O)Nc2ccccc2)C(=O)N(CC23CC4CC(CC(C4)C2)C3)c2ccccc21` (single isomer, unassigned; (-)), the melting point – broadly, the temperature of the solid-liquid transition – was in the range of 173 to 178 °C. Next, `O=C(CCC1c2ccccc2-c2ccccc21)N[C@@H](Cc1ccccc1)C(=O)O`: 194 to 195 °C; `CSCCCC(=O)NNC(=O)N1Cc2ccccc2Oc2ccc(Cl)cc21`: 134 to 137 °C; `CC(C)c1cccc(CN2C[C@H](CO)OC2=O)c1`: 75 to 77 °C. Turning to `CCOC(=O)/C=C(C)/C(F)=C/C=C(C)/C=C/c1c(Cl)cc(OC)c(C)c1C`, the melting point is 126 to 128 °C.

On to `CC(C)n1nc(-c2c(-c3ccccc3)nn3ccc(OCCC4CCCCC4)cc23)ccc1=O`, for which the melting point fell in the range of 146 to 147 °C. `COc1ccc(C(=O)N2CC[C@@H](O)C2=O)cc1`: the melting point is 121 to 122 °C. Regarding `COc1ccc(C(=O)c2cccc3[nH]ccc23)cc1`, the melting point lay within 148 to 152 °C. For `CC(=O)OC1(C)C=CC2=NC(c3cc(C)c(O)c(C)c3)=CC2=C1` (stereo not drawn), the melting point lay within 161 to 162 °C. Under `SCCC1c2ccccc2-c2ccccc21` stands 38 to 40 °C; under `CCCN1CCN(C2=Nc3cc(Br)ccc3N3CCc4cccc2c43)CC1`, 134 to 136 °C. For the compound `CC(C)(C)OC(=O)C(C)(C)N1COC(CCl)=C(c2ccccc2)C1=O`, the melting point fell in the range of 128 to 129 °C. Next, `COC(=O)CNC(=O)C(CS)NC(=O)CNC(=O)CS` (stereo not drawn): 149 to 151 °C; `Cc1nn(C)c2c1Nc1ncccc1N(C)C2=O`: 141 to 142 °C. Under `COc1cc(C(=O)O)ccc1Cn1ccc2ccc(NC(=O)OC3CCCC3)cc21` stands 237 to 238 °C; under `Cc1ccc(S(=O)(=O)OC[C@H]2COc3cc(C)c4c(c3O2)CC(=O)N4)cc1`, 233 to 235 °C. Turning to `CCOC(=O)CCc1cn(-c2ccccc2)nc1OCc1ccccc1`, the melting point was in the range of 123 to 124 °C. Compound `COc1cccc(Nc2cc(-c3nnc(C)o3)ccn2)c1` displayed a melting point of 192 to 193 °C. Under `O=C1Nc2cc(Cl)ccc2/C1=C\c1cccc(C(F)(F)F)c1` stands 157 to 160 °C; under `COCCOc1cc2c(cc1C#Cc1ccccc1)NC(=O)CC(c1cccc(-n3ccnc3)c1)=N2`, 187 to 189 °C; under `CCN(CC)S(=O)(=O)c1cc(-c2csc(=Nc3ccc(Cl)cc3)n2C)ccc1Cl`, 198 °C.

Take `CS(=O)(=O)c1ccc(Oc2ccc(Cl)c(Cl)c2)nc1`: the melting point fell in the range of 120 to 121 °C.

For `S=c1nc2c(-c3ccccc3)cccn2c(=S)n1-c1ncccc1-c1ccccc1`, the melting point lay in the range of 90 to 92 °C. In the case of `COc1ccc(NS(=O)(=O)c2ccc(N3CCC(=O)CC3)cc2)cc1OC`, the melting point lay in the range of 50 to 56 °C.

In turn, `CN(C)c1ccc(-c2nc(C#N)c(C#N)nc2C#N)cc1` displayed a melting point of 198 to 200 °C. Compound `COc1c(-c2nnc(Cc3ccc(F)cc3)o2)n(C)c2ccccc2c1=O` returned a melting point of 156 to 157 °C. Under `CCOC(=O)c1c(-c2ccccc2Cl)c2cc(C(C)C)ccc2n(C)c1=O` stands 140 to 142 °C; under `Cc1onc(-c2cccc(C(F)(F)F)c2)c1CCC(=O)O`, 63 to 64 °C.

In turn, `CC(COc1ccc(O)c(C(N)=O)c1)N(Cc1ccccc1)CC(O)COc1ccc(OCc2ccccc2)cc1` (stereo not drawn) yielded a melting point of 149 to 160 °C.

On to `COc1c(F)cccc1-c1cnn2ccc(N3CCN(C(=O)OC(C)C)CC3)nc12`, for which the melting point lay in the range of 52 to 53 °C. As for `O=C1NN(c2ccc(Cl)cc2)C(=O)C1=CNc1ccccc1`, the melting point lay in the range of 288 to 290 °C. Next, `N#Cc1cnn(-c2ccc(Cl)c(Cl)c2Cl)c1N(C(=O)Oc1ccccc1)C(=O)Oc1ccccc1`: 206 to 208 °C. Next, `CC(=O)Nc1cc(N)c(F)cc1Cl`: 176 to 178 °C; `ClCc1ncn2c1CN=C(c1ccccc1Cl)c1cc(Cl)ccc1-2`: 165 °C; `Cc1cccc(-c2c3c(cc4ccc5c(c24)OCO5)C(=O)NC3=O)c1`: 261 to 264 °C. Regarding `O=C(O)c1cnn(-c2ccc(C(F)(F)F)cc2)c1C(F)(F)F`, the melting point lay in the range of 157 to 158 °C. Under `O=C(O)CN(CC(CO)N(CCCO)CC(=O)O)CC(CO)N(CCCO)CC(=O)O` (stereo not drawn) stands 173 to 177 °C; under `O=C(Cc1ccc(Cl)nc1)Nc1ccccn1`, 130 °C; under `CC(C)(C)OC(=O)C(O)CC1CCC(=O)N1` (stereo not drawn), 110 to 112 °C.

For the compound `CSCN(C)C(=O)Nc1ccc(Cl)c(Cl)c1`, the melting point is 103 °C. With `Cn1c(O)nc2cc3c(cc21)C(C)(C)C(=O)N3`, the melting point fell in the range of 364 to 367 °C. On to `NC(=O)c1cc2ccccc2o1`, for which the melting point lay in the range of 165 to 166 °C. With `Cc1nc(OS(=O)(=O)C(F)(F)F)c([N+](=O)[O-])c(NCC(C)(C)O)c1C`, the melting point was 79 to 80 °C. Next, `C=C(C)C=NNC1=NS(=O)(=O)c2ccccc21`: 224 °C; `CC1=C(C(=O)OC(C)C)C(c2cccc([N+](=O)[O-])c2)n2c(cc(=O)n2C(=O)c2ccccc2)N1` (stereo not drawn): 201 to 203 °C. Under `CCOC(=O)CNC(=S)Cc1cnc(C)c(O)c1CO` stands 147 to 149 °C; under `Fc1ccc(-c2cc(CNc3cc(C4CC=CS4)n[nH]3)n[nH]2)cc1` (stereo not drawn), 128 to 130 °C. Consider `COc1ccc2ccc(N)cc2c1`, for which the melting point stood at 157 °C. Under `CC(C)(C)OC(=O)N1C[C@@H]2Cc3cc4ccccc4n3C[C@@H]2C1` (relative stereo) stands 143 to 144 °C.

`Oc1cccc([C@H]2CC[C@@H](c3ccccc3)N2)c1` (racemic): the melting point was 151 °C.

Consider `O=C1/C(=C/C=C/c2ccccc2)CCc2cc(OCCn3ccnc3)ccc21`, for which the melting point fell in the range of 198 to 200 °C. Consider `COC(=O)c1ccc2oc3c(c(=O)c2c1)CCC3=Cc1ccc(N)cc1`, for which the melting point was in the range of 265 to 268 °C. Compound `CS(=O)(=O)CCNc1cc(C(c2cc(F)ccc2F)S(=O)(=O)c2ccc(Cl)cc2)c(Cl)cn1` (stereo not drawn) displayed a melting point of 134 to 136 °C. In turn, `O=C(O)c1ccccc1Oc1cc(Cl)c(Cl)cc1NS(=O)(=O)c1ccc(Cl)cc1` came in with a melting point of 220 to 221 °C.

`CC(C)(C)NC(=O)[C@H](Cc1ccc([N+](=O)[O-])cc1)NC(=O)OC(C)(C)C` yielded a melting point of 158 to 159 °C. Next, `CC(C)C(NC(=O)OC(C)(C)C)C(=O)OCN1C(=O)CCC(N2C(=O)c3ccccc3C2=O)C1=O` (stereo not drawn): 82 to 85 °C; `NS(=O)(=O)c1ccc(CCN2C(=O)c3ccccc3C2=O)s1`: 226 to 229 °C. Consider `Cn1ccnc1Sc1c(Cl)cccc1[N+](=O)[O-]`, for which the melting point lay within 102 to 104 °C.

`COC(=O)C(C)(C)OCc1cc2cc(Cl)ccc2n1S(=O)(=O)c1ccc(OC)cc1` returned a melting point of 96 to 98 °C. Next, `CC(=O)C=Cc1cn(CC(=O)N(C)CCc2ccccc2)c2ccc(OCc3ccccc3)cc12`: 150 to 152 °C; `CC(C)N(CCN1C(=O)C(=O)c2ccccc21)C1CCCCC1`: 103 to 106 °C. In turn, `N#Cc1ccc(N(Cc2ccc(O)c(Cl)c2)n2cnnc2)cc1-c1cc2ccccc2o1` returned a melting point of 196 to 197 °C.

`COc1ccc(C=Cc2ccc(C)cc2)c(Cl)c1` registered a melting point of 144 to 145 °C. Next, `O=S(=O)(c1ccccc1)c1ccc2cnc(Nc3ccc(N4CCOCC4)cc3)nn12`: 110 to 115 °C; `COc1cccc(N)c1C#N`: 143 to 146 °C. Regarding `Cc1ccnc(-c2cccnc2)c1OC1SCC(O)C(O)C1O` (stereo not drawn), the melting point came to 98 °C. As to `CNc1ccc(C(O)(C(F)(F)Cl)C(F)(F)Cl)cc1`, the melting point lay in the range of 92 to 94 °C.

In the case of `COCc1nc(C(C)(C)C)c[nH]1`, the melting point lay in the range of 65 to 66 °C. Next, `O=C(Cc1ccc(OCc2ccc(F)cc2)cc1)NC1(c2nn[nH]n2)Cc2ccc(-c3ccc(Cl)cc3)cc2C1` (stereo not drawn): 108 to 110 °C.

On to `N=C(Cc1ccccc1)NS(=O)(=O)C=Cc1ccc(Cl)c(Cl)c1`, for which the melting point lay in the range of 151 to 155 °C.

Consider `CCC(=O)OCOC(=O)c1cc(S(N)(=O)=O)c(Cl)cc1NCc1ccco1`, for which the melting point was in the range of 141 to 142 °C. `CC(=O)OCc1cc2cc(-c3ccc(OC(F)(F)F)cc3)ccc2n1Cc1ccc(C)cc1` yielded a melting point of 125 to 126 °C. Next, `Cc1ccccc1C(O)c1nnn[nH]1` (racemic): 124 to 126 °C; `COC(=O)Cc1cn(-c2ccccc2)nc1OCc1ccc(OCc2nc(-c3ccccc3)oc2C)nc1`: 96 to 97 °C; `COC(=O)c1ccc2cc(OC(=S)N(C)C)ccc2c1`: 144 to 147 °C. Turning to `Cc1nn(-c2c(Cl)cc(C(F)(F)F)cc2Cl)nc1Cl`, the melting point is 100 to 115 °C. Regarding `O=C(NC1CN(C(C(=O)O)c2ccccc2)C1=O)C(=NO)c1ccccc1` (stereo not drawn), the melting point was in the range of 145 to 149 °C. Next, `COc1ccc2c(c1)c(CC(=O)O)c(C)n2C(=O)c1ccc(F)cc1`: 130 to 132 °C; `COC(=O)c1nc(-c2ccc(Cl)c(OC)c2F)nc(O)c1Cl`: 215 to 217 °C. Next, `CCCC1=CC(C)(C)Oc2c(OCC)cc(Cc3cnc(N)nc3N)cc21`: 208 to 209 °C; `Cc1ccc(C2CCCN2S(=O)(=O)c2ccc(C)cc2)cc1` (racemic): 124 °C. Under `CC(C)(C)OC(=O)N1CCN(C(=O)CCc2cccnc2)CC1` stands 125 to 126 °C.

Compound `CC(C)(C)OC(=O)NC(=N)NC(=O)OCc1ccccc1` came in with a melting point of 125 to 126 °C. Next, `CCOP(=O)(OCC)N1C(=O)[C@@H](NC(=O)OC(C)(C)C)[C@@H]1C`: 101 to 104 °C. In turn, `COc1ccc(C2=NN(c3ccc(Br)cc3)C(=O)C(C)(C)C2)cc1OC` registered a melting point of 123 to 124 °C.

As for `CC(C)CCNC(=O)C(c1ccccc1)c1ccccc1`, the melting point worked out at 128 °C.

`Nc1cc(Oc2ccc3c(c2)CCN3C(=O)Nc2cccc(C(F)(F)F)c2)ncn1` gave a melting point of 186 to 187 °C. Next, `COc1ccc(NC(=S)NC(=O)c2ccccc2)cc1COc1cc(Cl)cc(Cl)c1`: 167 to 169 °C.
